Measured values as given in patent EP0619313A1, “LITHIUM SALT OF 2-O-ALK[…]” (TSUMURA & CO., priority 1992, dated 1994).

Experiments:
[1] = Water-solubility; conditions: at 28°C
[2] = Toxicity after oral or intravenous administration, mice; type: in vivo; conditions: mouse, in vivo, read-out: LD₅₀
Procedure: (§1) The test compound was administered orally or intravenously to Jcl:ICR mice and Jcl:Wistar rats (two mice or rats (male and female) per group). 2-O-octadecylascorbic acid lithium obtained in Example 1 as the test compound was suspended in 0.5% methyl cellulose in the case of oral administration and dissolved in physiological saline in the case of intravenous administration.

[3] = tested on: Jcl:ICR mice; experiment: as above; type: in vivo
Procedure: as §1

[4] = tested on: myocardial infarction focus; experiment: Inhibition of development of myocardial infarction focus after coronary obstruction-reperfusion in rats; type: in vivo, Male Wistar-rats; conditions: 1 mg/kg intravenous
Procedure: Male Wistar-rats (11 to 12 weeks old) were used and anethesized with pentobarbital-Na, and medianus thoracotomy was carried out under artificial respiration. After incising the pericardium membrane, the heart was exposed. The base of the left coronary artery together with cardiac muscle was threaded with a sutural needle and thread (marketed by Lederle (Japan), Ltd., 7-0 silk), which were passed through a polyethylene tube, and the thread was pulled. Thus, coronary artery was obstructed. One hour later, the thread was loosed to make blood to flow again. Thirty to sixty minutes after reperfusion, the thorax was closed and the rat was kept under arousal.
After 24 hours, the rats were anesthetized again, and the heart was removed quickly and soaked in ice-cooled physiological saline. The coronary artery was obstructed again to know a dangerous region. Evans' Blue (1%) was perfused through a polyethylene tube inserted into the aorta retrogradely, and normal region was separated from the dangerous region. Thereafter, the left ventricle was divided into 6 parts parallel to the vertical axis and dyed with triphenyl tetrazolium chloride (TTC)(1%) at 37°C for 10 minutes except necrotic cells. The infarction focus was weighed. The test drug (2-O-octadecylascorbic acid obtained in Example 1) was dissolved in physiological saline, and administered intravenously 30 minutes after the coronary obstruction.

[5] = tested on: Jcl:Wistar rats; experiment: Toxicity after oral or intravenous administration, rats; type: in vivo
Procedure: as §1

[6] = as above; type: in vivo; conditions: rat, in vivo, read-out: LD₅₀
Procedure: as §1

[7] = target: T1, GST-cdc25Hu2 fused protein (Homo sapiens, UniProt P30305); experiment: GST-cdc25Hu2 (protein phosphatase) inhibitory activity; type: biochemical; conditions: 37°C for 60 minutes, read-out: cdc25 activity inhibited
T1 sequence (P30305 1-580): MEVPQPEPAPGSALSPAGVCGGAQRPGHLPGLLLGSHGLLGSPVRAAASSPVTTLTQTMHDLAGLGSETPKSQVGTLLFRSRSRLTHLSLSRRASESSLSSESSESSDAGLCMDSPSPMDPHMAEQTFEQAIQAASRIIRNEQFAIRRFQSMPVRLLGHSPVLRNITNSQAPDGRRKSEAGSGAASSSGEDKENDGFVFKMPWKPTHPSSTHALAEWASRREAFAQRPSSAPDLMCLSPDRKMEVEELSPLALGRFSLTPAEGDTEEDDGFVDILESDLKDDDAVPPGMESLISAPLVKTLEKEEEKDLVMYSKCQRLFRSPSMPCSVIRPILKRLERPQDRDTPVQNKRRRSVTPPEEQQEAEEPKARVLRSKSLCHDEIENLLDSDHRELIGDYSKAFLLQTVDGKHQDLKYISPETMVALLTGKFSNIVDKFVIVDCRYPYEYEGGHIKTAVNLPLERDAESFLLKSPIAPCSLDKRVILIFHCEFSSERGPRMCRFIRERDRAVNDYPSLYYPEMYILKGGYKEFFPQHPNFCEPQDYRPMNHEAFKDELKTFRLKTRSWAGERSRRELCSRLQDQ
Procedure: A test compound (2-O-octadecylascorbic acid lithium obtained in Example 1)(80 µM) was added to a reaction mixture containing GST-cdc25Hu2 fused protein (60 µg/ml), p-nitrophenylphosphate (manufactured by Wako Pure Chemical Industries, Ltd.)(10 mM), bovine serum albumin (manufactured by Sigma, U.S.A.)(100 µg/ml), DDT (dithiothreitol) (manufactured by Wako Pure Chemical Industries, Ltd.)(10 mM) and HEPES (2-hydroxyethylpiperazine-N'-2-ethane sulfate)(25 mM, pH 8.0). The mixture was subjected to reaction at 37°C for 60 minutes. Then, absorbance at 405 nm was measured, and the inhibitory activity was evaluated based on the decrease of the absorbance.

[8] = target: T2, Phospholipase A₂ derived from pig pancreas (Sus scrofa, UniProt P00592); experiment: Inhibitory activity against phospholipase A₂; type: biochemical; conditions: pH 9, read-out: enzymatic activity of the phospholipase inhibited
T2 construct: Phospholipase A₂ derived from pig pancreas; from tissue; host or cells: pig pancreas
Procedure: Phospholipase A₂ derived from pig pancreas was reacted for 10 minutes in 0.1M glycine-NaOH buffer (pH 9) containing a test compound (2-O-octadecylascorbic acid lithium obtained in Example 1)(300 µM) and labeled phosphatidylcholine. Thereafter, Ca⁺⁺ (2.5 mM) was added and the reaction was continued for additional 5 minutes. The reaction was stopped by adding 0.2M EDTA solution to the reaction mixture. The mixture was extracted with acidic […]. Scintillation of the […] layer was measured.

[9] = tested on: rabbit defibrinated blood; experiment: Hemolysis test with rabbit defibrinated blood; type: cell-based; conditions: not more than 1 µg/ml in physiological saline; 37°C for 1 hour; macroscopic observation of the supernatant
Procedure: A physiological saline solution containing 2-O-octadecylascorbic acid lithium obtained in Example 1 below was warmed to 37°C, put in a Spitz roll, provided with rabbit defibrinated blood (Note)(0.1 ml) previously warmed to 37°C, shaken for mixing gently and warmed at 37°C for 1 hour. Then, this liquid was subjected to centrifugation. Macroscopic observation was made as to whether the supernatant had hemolysis.
Blood (about 20 ml) was drawn from rabbits, put in a flask containing about twenty glass beads of diameter of 8 mm, shaken for mixing gently for about 5 minutes and filtered through gauze. This preparation was carried out before use.

[10] = tested on: lipid peroxidation enzyme; experiment: Inhibitory activity against lipid peroxidation enzyme (rat liver microsome, carbon tetrachloride, thiobarbituric acid); type: biochemical; conditions: 300 µM; carbon tetrachloride 20 mM; 37°C for 12 minutes
Procedure: Rat liver microsome (2 mg), which is a NADPH generating system, the test compound (2-O-octadecylascorbic acid lithium obtained Example 1)(300 µM) and carbon tetrachloride (20 mM) were reacted at 37°C for 12 minutes. A mixed solution of thiobarbituric acid and trichloroacetic acid was added to the solution. Absorbance was measured at 535 nm.

[11] = intravenous administration, dissolved in physiological saline
[12] = oral administration, suspended in 0.5% methyl cellulose

T2 sequence (P00592 23-146): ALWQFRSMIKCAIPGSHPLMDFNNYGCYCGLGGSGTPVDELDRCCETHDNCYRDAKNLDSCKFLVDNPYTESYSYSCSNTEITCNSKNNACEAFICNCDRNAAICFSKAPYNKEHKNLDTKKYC

## CCCCCCCCCCCCCCCCCCOC1=C(O)[C@@H]([C@@H](O)CO)OC1=O.[Li] [2-O-octadecylascorbic acid lithium]
[1]
  water-solubility: 1 g/83 ml (water)
[2]; [11]
  LD50: 25 to 50 mg/kg
[2]; [12]
  LD50: ≥ 2000 mg/kg
[3]
  Abnormal findings in the autopsy of the survivors: not observed
[3]; intravenous administration
  autopsy of the dead animals: Pulmonary congestion was observed
[4]; 30 minutes after the coronary obstruction, N=7, control 60.0±1.8%
  infarction focus per the dangerous region (IS/AR): 40.5±4.6%
[4]; P<0.001
  inhibition in comparison with the control group: 32.7%
[4]; compared with the physiological saline group
  dangerous region per left ventricle (AR/LV): no significant difference
[5]
  Abnormal findings in the autopsy of the survivors: not observed
[5]; intravenous administration
  autopsy of the dead animals: Pulmonary congestion was observed
[6]; [11]
  LD50: 25 to 50 mg/kg
[6]; [12]
  LD50: ≥ 2000 mg/kg
[7]
  inhibition at 80 µM: 93.6%
[8]
  inhibition at 300 µM: 59%
[9]
  hemolysis: not observed
[10]
  inhibitory ratio of the enzymatic activity: 75%
